Among the data in patent US9090605B2, “Substituted 5-,6- and 7-membered heterocycles, medicaments containing such compounds, and their use” (Vitae Pharmaceuticals, Inc., priority 2010, dated 2015) are IC50 values, retold here.

This experiment deals with 11β-HSD1 (Homo sapiens, UniProt P28845). Nature of the experiment: Inhibition of a microsomal preparation of 11β-HSD1, scintillation proximity assay, microsomes from CHO cells overexpressing human 11β-HSD1 (biological test example 2). The format is biochemical. More on the design: expressed in transfected cells; host or cells: CHO cells (microsomes isolated from them). The settings on record: microsomes from CHO cells overexpressing human 11β-HSD1, SPA, [3H]cortisone, 90 minutes at room temperature; read-out: IC50, inhibitory activity on 11β-HSD 1. The method, then: All reactions were carried out at room temperature in 96 well clear flexible PET Microbeta plates (PerkinElmer). The assay begins by dispensing 49 μl of substrate solution [50 mM HEPES, pH 7.4, 100 mM KCl, 5 mM NaCl, 2 mM MgCl2, 2 mM NADPH and 160 nM [^3H]cortisone (1 Ci/mmol)] and mixing in 1 μL of the test compounds in dimethyl sulfoxide previously diluted in half-log increments (8 points) starting at 0.1 mM. After a 10 minute pre-incubation, 50 μL of enzyme solution containing microsomes isolated from CHO cells overexpressing human 11β-HSD1 (10-20 μg/ml of total protein) was added, and the plates were incubated for 90 minutes at room temperature. The reaction was stopped by adding 50 μl of the SPA beads suspension containing 10 μM 18β-glycyrrhetinic acid, 5 mg/ml protein A coated YSi SPA beads (GE Healthcare) and 3.3 μg/ml of anti-cortisol antibody (East Coast Biologics) in Superblock buffer (Bio-Rad). The plates were shaken for 120 minutes at room temperature, and the SPA signal corresponding to [^3H]cortisol was measured on a Microbeta plate reader.
Sequence of 11β-HSD1 (P28845 whole entry): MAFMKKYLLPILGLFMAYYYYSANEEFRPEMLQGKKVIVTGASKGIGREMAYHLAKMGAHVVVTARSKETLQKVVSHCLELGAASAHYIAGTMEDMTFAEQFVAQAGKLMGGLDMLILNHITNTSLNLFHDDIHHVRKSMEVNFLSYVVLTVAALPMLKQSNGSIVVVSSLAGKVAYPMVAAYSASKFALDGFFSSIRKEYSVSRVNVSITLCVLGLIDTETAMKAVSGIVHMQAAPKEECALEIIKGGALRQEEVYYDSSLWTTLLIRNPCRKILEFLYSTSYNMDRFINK

In the case of `C[C@@H](c1ccc(-c2ccc(C3(C(N)=O)CC3)nc2)cc1)N1CC[C@](CC(C)(C)O)(c2ccccc2)NC1=O` [Example 49, 1-[5-(4-{(S)-1-[(S)-4-(2-Hydroxy-2-methyl-propyl)-2-oxo-4-phenyl-tetrahydro-pyrimidin-1-yl]-ethyl}-phenyl)-pyridin-2-yl]-cyclopropanecarboxylic acid amide], the IC50 worked out at 1.5 nM.
The result for `C[C@@H](c1ccc(-c2csc(-n3ccccc3=O)n2)cc1)N1CC[C@](CC(C)(C)O)(c2ccccc2)OC1=O` [Example 37, (S)-6-(2-hydroxy-2-methylpropyl)-3-((S)-1-{4-[2-(2-oxopyridin-1(2H)-yl)thiazol-4-yl]phenyl}ethyl)-6-phenyl-1,3-oxazinan-2-one] reads 0.5 nM.
